Test results as given in patent publication US9035056B2, “Pyrido[4,3-b]indole and pyrido[3,4-b]indole derivatives and methods of use” (Medivation Technologies, Inc., priority 2011, dated 2015).

Tests used:
[1] = target: T1, human recombinant serotonin (5-Hydroxytryptamine) 5-HT7 receptor (Homo sapiens, UniProt P34969); assay: Serotonin 5-HT7 radioligand binding ([3H]LSD); details: 0.1 μM compound; read-out: Percentage inhibition of ligand binding, Serotonin 5-HT7
T1 construct: expressed in transfected cells; host or cells: CHO
Experimental: To evaluate in radioligand binding assays the activity of compounds of the invention, human recombinant serotonin (5-Hydroxytryptamine) 5-HT7 receptor expressed in Chinese hamster ovary (CHO) cells (Roth, B. et al, J. Pharmacol. Exp. Ther. 268:1403, 1994; Shen, Y. et al, J. Biol. Chem. 268:18200, 1993) in a modified Tris-HCl buffer (50 mM Tris-HCl, pH 7.4, 10 mM MgCl2, 0.5 mM EDTA) was used. Compounds of invention were incubated with 5.5 nM [^3H] Lysergic acid diethylamide (LSD) for 2 h at 25° C. Non-specific binding was estimated in the presence of 10 μM Serotonin (5-HT). Receptor proteins were filtered and washed, the filters were then counted to determine [^3H]LSD specifically bound. Compounds were screened at 1 μM or lower, using 1% DMSO as vehicle. Biochemical assay results are presented as the percent inhibition of specific binding in Table 5.

[2] = target: T2, human recombinant serotonin (5-Hydroxytryptamine) 5-HT5A receptor (Homo sapiens, UniProt P47898); assay: Serotonin 5-HT5A radioligand binding ([3H]LSD); details: 0.1 μM compound; read-out: Percentage inhibition of ligand binding, Serotonin 5-HT5A
T2 construct: expressed in transfected cells; host or cells: CHO-K1
Experimental: To evaluate in radioligand binding assays the activity of compounds of the invention, human recombinant serotonin (5-Hydroxytryptamine) 5-HT5A receptor expressed in Chinese hamster ovary (CHO) K1 cells (Rees, S. et al, FEBS Lett. 355:242, 1994) in a modified Tris-HCl buffer (50 mM Tris-HCl, pH 7.4, 10 mM MgCl2, 0.5 mM EDTA) was used. Compounds of the invention were incubated with 1.7 nM [^3H]Lysergic acid diethylamide (LSD) for 60 min at 37° C. Non-specific binding was estimated in the presence of 100 μM Serotonin (5-HT). Receptor proteins were filtered and washed, the filters were counted to determine [^3H]LSD specifically bound. Compounds were screened at 1 μM or lower, using 1% DMSO as vehicle. Biochemical assay results are presented as the percent inhibition of specific binding in Table 5.

[3] = target: T3, human recombinant serotonin (5-Hydroxytryptamine) 5-HT2A receptor (Homo sapiens, UniProt P28223); assay: Serotonin 5-HT2A radioligand binding ([3H]Ketanserin); details: 0.1 μM compound; read-out: Percentage inhibition of ligand binding, Serotonin 5-HT2A
T3 construct: expressed in transfected cells; host or cells: CHO-K1
Experimental: To evaluate in radioligand binding assays the activity of compounds of the invention, human recombinant serotonin (5-Hydroxytryptamine) 5-HT2A receptor expressed in Chinese hamster ovary (CHO) K1 cells (Bonhaus, D. et al, Br. J. Pharmacol. 115:622, 1995; Saucier, C. et al, J. Neurochem. 68:1998, 1997) in a 50 mM Tris-HCl buffer, pH 7.4, was used. Compounds of the invention were incubated with 0.5 nM [^3H]Ketanserin for 60 min at 25° C. Non-specific binding was estimated in the presence of 1 μM Mianserin. Receptor proteins were filtered and washed, the filters were then counted to determine [^3H]Ketanserin specifically bound. Compounds were screened at 1 μM or lower, using 1% DMSO as vehicle. Biochemical assay results are presented as the percent inhibition of specific binding in Table 5.

T2 sequence (P47898 whole entry): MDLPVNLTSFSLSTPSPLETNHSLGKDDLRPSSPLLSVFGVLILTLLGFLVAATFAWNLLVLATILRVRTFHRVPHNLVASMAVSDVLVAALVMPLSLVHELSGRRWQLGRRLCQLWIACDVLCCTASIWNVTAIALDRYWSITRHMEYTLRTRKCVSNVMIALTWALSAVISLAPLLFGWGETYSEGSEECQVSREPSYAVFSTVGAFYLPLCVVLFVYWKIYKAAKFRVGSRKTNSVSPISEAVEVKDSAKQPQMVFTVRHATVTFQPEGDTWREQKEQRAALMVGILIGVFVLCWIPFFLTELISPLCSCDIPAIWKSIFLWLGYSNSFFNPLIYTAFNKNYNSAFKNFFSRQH
T3 sequence (P28223 whole entry): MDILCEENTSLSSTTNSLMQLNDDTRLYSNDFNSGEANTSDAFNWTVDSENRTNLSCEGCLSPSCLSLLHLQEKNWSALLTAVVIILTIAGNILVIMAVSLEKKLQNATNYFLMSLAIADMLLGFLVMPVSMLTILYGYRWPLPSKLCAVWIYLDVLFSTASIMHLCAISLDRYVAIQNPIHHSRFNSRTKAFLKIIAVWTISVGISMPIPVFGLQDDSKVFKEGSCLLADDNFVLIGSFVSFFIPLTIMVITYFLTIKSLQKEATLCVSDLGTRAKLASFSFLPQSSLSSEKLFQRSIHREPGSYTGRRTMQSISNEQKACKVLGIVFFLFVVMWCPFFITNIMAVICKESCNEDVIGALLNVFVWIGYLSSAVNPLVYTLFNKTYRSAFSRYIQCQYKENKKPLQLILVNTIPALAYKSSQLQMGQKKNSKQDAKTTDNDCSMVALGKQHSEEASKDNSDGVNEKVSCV
T1 sequence (P34969 whole entry): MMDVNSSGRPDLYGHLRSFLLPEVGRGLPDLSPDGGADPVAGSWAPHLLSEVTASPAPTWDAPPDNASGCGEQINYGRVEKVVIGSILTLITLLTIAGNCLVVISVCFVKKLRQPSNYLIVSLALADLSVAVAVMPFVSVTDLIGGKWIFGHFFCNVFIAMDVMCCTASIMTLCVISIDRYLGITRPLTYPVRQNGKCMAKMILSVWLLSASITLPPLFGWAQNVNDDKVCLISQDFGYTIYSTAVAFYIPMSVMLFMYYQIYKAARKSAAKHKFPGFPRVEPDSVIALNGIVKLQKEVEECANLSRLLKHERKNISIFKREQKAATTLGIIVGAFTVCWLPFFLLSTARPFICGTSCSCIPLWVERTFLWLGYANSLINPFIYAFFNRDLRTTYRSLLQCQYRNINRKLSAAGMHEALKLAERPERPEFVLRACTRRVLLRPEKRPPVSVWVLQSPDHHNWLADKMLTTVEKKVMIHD

SMILES | inhibition at 0.1 µM [1] [%] | inhibition at 0.1 µM [2] [%] | inhibition at 0.1 µM [3] [%]
Cc1ccc2c(c1)c1c(n2/C=C2/CCCc3ccccc32)CCN(C)C1 [i-2] | 97 | 101 | 99
Cc1ccc2c(c1)c1c(n2/C=C2\CCCc3ccccc32)CCN(C)C1 [i-3] | 96 | 91 | 100
